# Test results published in patent publication US11691962B2 (eXIthera Pharmaceuticals, Inc., priority 2018, dated 2023).
# Molecular target: Factor XIa (Homo sapiens (Human), UniProt P03951)
# Assay: Factor XIa enzyme inhibition assay (dose response, fluorogenic AMC substrate)
# Format: biochemical
# Details: read-out: hFXIa IC50
# Outline: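 Fluorogenic progress curves (30 min, 1-min reads, 30° C) were recorded for 0.25 nM FXIa cleaving 50 μM Glp-Pro-Arg-AMC in Hepes pH 7.4 buffer with NaCl and Tween 20. Compounds were serially two-fold diluted, and IC50 was fitted with a Hill equation.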
# Factor XIa, sequence (P03951 388-625): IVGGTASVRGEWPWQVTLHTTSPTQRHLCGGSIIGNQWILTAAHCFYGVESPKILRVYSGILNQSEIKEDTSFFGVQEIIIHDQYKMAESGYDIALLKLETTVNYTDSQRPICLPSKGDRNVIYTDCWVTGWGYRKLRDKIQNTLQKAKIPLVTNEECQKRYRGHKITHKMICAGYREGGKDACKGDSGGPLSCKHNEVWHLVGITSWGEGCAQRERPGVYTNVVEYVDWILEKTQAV
# Factor XIa, sequence (P03951 19-387 partner): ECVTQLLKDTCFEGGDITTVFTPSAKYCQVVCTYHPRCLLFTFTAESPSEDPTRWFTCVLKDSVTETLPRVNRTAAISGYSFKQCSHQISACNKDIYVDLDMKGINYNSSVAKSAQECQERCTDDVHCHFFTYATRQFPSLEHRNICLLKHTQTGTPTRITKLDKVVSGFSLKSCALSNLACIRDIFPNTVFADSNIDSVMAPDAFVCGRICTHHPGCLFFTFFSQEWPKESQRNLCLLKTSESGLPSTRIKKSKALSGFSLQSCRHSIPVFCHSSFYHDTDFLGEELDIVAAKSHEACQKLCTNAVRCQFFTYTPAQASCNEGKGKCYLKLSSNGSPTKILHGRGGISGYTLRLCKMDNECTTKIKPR
row,SMILES,IC50 [nM]
1,"CC[C@@H](NC(=O)N1C(=O)[C@H](Cc2cc(C)nc(N)c2)[C@H]1C(=O)N(C)c1cnn(C)c1)c1ccc(F)cc1C [Compound 1-180, (2S,3R)-3-((2-amino-6-methylpyridin-4-yl)methyl)-N2-(1-methyl-1H-pyrazol-4-yl)-N1-((R)-1-(4-fluoro-2-methylphenyl)propyl)-N2-methyl-4-oxoazetidine-1,2-dicarboxamide]",10 to 100
2,"CC[C@@H](NC(=O)N1C(=O)[C@H](Cc2cc(C)nc(N)c2)[C@H]1C(=O)N(C)c1cnn(C)c1)c1ccc(C)cc1 [Compound 1-181, (2S,3R)-3-((2-amino-6-methylpyridin-4-yl)methyl)-N2-(1-methyl-1H-pyrazol-4-yl)-N1-((R)-1-(4-methylphenyl)propyl)-N2-methyl-4-oxoazetidine-1,2-dicarboxamide]",10 to 100
3,"CC[C@@H](NC(=O)N1C(=O)[C@H](Cc2cc(C)nc(N)c2)[C@H]1C(=O)N(C)c1cnn(C)c1)c1ccc(F)cc1F [Compound 1-188, (2S,3R)-3-((2-amino-6-methylpyridin-4-yl)methyl)-N2-(1-methyl-1H-pyrazol-4-yl)-N1-((R)-1-(2,4-difluorophenyl)propyl)-N2-methyl-4-oxoazetidine-1,2-dicarboxamide]",10 to 100
4,"CC[C@@H](NC(=O)N1C(=O)[C@H](Cc2cc(C)nc(N)c2)[C@H]1C(=O)N(C)c1cnn(C)c1)c1cc(F)cc(F)c1 [Compound 1-189, (2S,3R)-3-((2-amino-6-methylpyridin-4-yl)methyl)-N2-(1-methyl-1H-pyrazol-4-yl)-N1-((R)-1-(3,5-difluorophenyl)propyl)-N2-methyl-4-oxoazetidine-1,2-dicarboxamide]",10 to 100
5,"CC[C@@H](NC(=O)N1C(=O)[C@H](Cc2cc(C)nc(N)c2)[C@H]1C(=O)N(C)c1cnn(C)c1)c1cccc(F)c1C [Compound 1-191, (2S,3R)-3-((2-amino-6-methylpyridin-4-yl)methyl)-N2-(1-methyl-1H-pyrazol-4-yl)-N1-((R)-1-(3-fluoro-2-methylphenyl)propyl)-N2-methyl-4-oxoazetidine-1,2-dicarboxamide]",10 to 100
6,"CC[C@@H](NC(=O)N1C(=O)[C@H](Cc2ccnc(N)c2)[C@H]1C(=O)N(C)c1nccn1C)c1cc(C)c(F)c(C)c1 [Compound 1-195, (2S,3R)-3-((2-aminopyridin-4-yl)methyl)-N2-(1-methyl-1H-imidazol-2-yl)-N1-((R)-1-(3,5-dimethyl-4-fluorophenyl)propyl)-N2-methyl-4-oxoazetidine-1,2-dicarboxamide]",< 10
7,"CC[C@@H](NC(=O)N1C(=O)[C@H](Cc2ccnc(N)c2)[C@H]1C(=O)N(C)c1nccn1C)c1ccc(C)c(F)c1C [Compound 1-196, (2S,3R)-3-((2-aminopyridin-4-yl)methyl)-N2-(1-methyl-1H-imidazol-2-yl)-N1-((R)-1-(2,4-dimethyl-3-fluorophenyl)propyl)-N2-methyl-4-oxoazetidine-1,2-dicarboxamide]",< 10
8,"CC[C@@H](NC(=O)N1C(=O)[C@H](Cc2ccnc(N)c2)[C@H]1C(=O)N(C)c1ccn(C)n1)c1ccc(C)c(F)c1F [Compound 1-201, (2S,3R)-3-((2-aminopyridin-4-yl)methyl)-N2-(1-methyl-1H-pyrazol-3-yl)-N1-((R)-1-(2,3-difluoro-4-methylphenyl)propyl)-N2-methyl-4-oxoazetidine-1,2-dicarboxamide]",< 10
9,"CC[C@@H](NC(=O)N1C(=O)[C@H](Cc2ccnc(N)c2)[C@H]1C(=O)N(C)c1ccnn1C)c1ccc(C)c(F)c1F [Compound 1-202, (2S,3R)-3-((2-aminopyridin-4-yl)methyl)-N2-(1-methyl-1H-pyrazol-5-yl)-N1-((R)-1-(2,3-difluoro-4-methylphenyl)propyl)-N2-methyl-4-oxoazetidine-1,2-dicarboxamide]",< 10
10,"CC[C@@H](NC(=O)N1C(=O)[C@H](Cc2ccnc(N)c2)[C@H]1C(=O)N(C)c1ccn(C)n1)c1cc(C)c(F)c(C)c1 [Compound 1-203, (2S,3R)-3-((2-aminopyridin-4-yl)methyl)-N2-(1-methyl-1H-pyrazol-3-yl)-N1-((R)-1-(3,5-dimethyl-4-fluorophenyl)propyl)-N2-methyl-4-oxoazetidine-1,2-dicarboxamide]",< 10
11,"CC[C@@H](NC(=O)N1C(=O)[C@H](Cc2ccnc(N)c2)[C@H]1C(=O)N(C)c1ccnn1C)c1cc(F)c(F)c(F)c1 [Compound 1-204, (2S,3R)-3-((2-aminopyridin-4-yl)methyl)-N2-(1-methyl-1H-pyrazol-5-yl)-N1-((R)-1-(3,4,5-trifluorophenyl)propyl)-N2-methyl-4-oxoazetidine-1,2-dicarboxamide]",< 10
12,"CC[C@@H](NC(=O)N1C(=O)[C@H](Cc2ccnc(N)c2)[C@H]1C(=O)N(C)c1ccnn1C)c1cc(C)c(F)c(C)c1 [Compound 1-205, (2S,3R)-3-((2-aminopyridin-4-yl)methyl)-N2-(1-methyl-1H-pyrazol-5-yl)-N1-((R)-1-(3,5-dimethyl-4-fluorophenyl)propyl)-N2-methyl-4-oxoazetidine-1,2-dicarboxamide]",< 10

# The next lines start with the values.
row,IC50 [nM],SMILES
1,< 10,"CC[C@@H](NC(=O)N1C(=O)[C@H](Cc2cc(C)nc(N)c2)[C@H]1C(=O)N(C)c1cnn(C)c1)c1ccc(C)cc1C [Compound 1-179, (2S,3R)-3-((2-amino-6-methylpyridin-4-yl)methyl)-N2-(1-methyl-1H-pyrazol-4-yl)-N1-((R)-1-(2,4-dimethylphenyl)propyl)-N2-methyl-4-oxoazetidine-1,2-dicarboxamide]"
2,< 10,"CC[C@@H](NC(=O)N1C(=O)[C@H](Cc2cc(C)nc(N)c2)[C@H]1C(=O)N(C)c1cnn(C)c1)c1ccc(C)cc1F [Compound 1-183, (2S,3R)-3-((2-amino-6-methylpyridin-4-yl)methyl)-N2-(1-methyl-1H-pyrazol-4-yl)-N1-((R)-1-(2-fluoro-4-methylphenyl)propyl)-N2-methyl-4-oxoazetidine-1,2-dicarboxamide]"
3,< 10,"CC[C@@H](NC(=O)N1C(=O)[C@H](Cc2cc(C)nc(N)c2)[C@H]1C(=O)N(C)c1nncs1)c1ccccc1 [Compound 1-186, (2S,3R)-3-((2-amino-6-methylpyridin-4-yl)methyl)-N2-(1,3,4-thiadiazol-2-yl)-N1-((R)-1-phenylpropyl)-N2-methyl-4-oxoazetidine-1,2-dicarboxamide]"
4,< 10,"CC[C@@H](NC(=O)N1C(=O)[C@H](Cc2cc(C)nc(N)c2)[C@H]1C(=O)N(C)c1nnco1)c1ccccc1 [Compound 1-187, (2S,3R)-3-((2-amino-6-methylpyridin-4-yl)methyl)-N2-(1,3,4-oxadiazol-2-yl)-N1-((R)-1-phenylpropyl)-N2-methyl-4-oxoazetidine-1,2-dicarboxamide]"
5,< 10,"CC[C@@H](NC(=O)N1C(=O)[C@H](Cc2cc(C)nc(N)c2)[C@H]1C(=O)N(C)c1cnn(C)c1)c1cccc(C)c1F [Compound 1-190, (2S,3R)-3-((2-amino-6-methylpyridin-4-yl)methyl)-N2-(1-methyl-1H-pyrazol-4-yl)-N1-((R)-1-(2-fluoro-3-methylphenyl)propyl)-N2-methyl-4-oxoazetidine-1,2-dicarboxamide]"
6,< 10,"CC[C@@H](NC(=O)N1C(=O)[C@H](Cc2ccnc(N)c2)[C@H]1C(=O)N(C)c1nccn1C)c1ccc(C)c(F)c1F [Compound 1-192, (2S,3R)-3-((2-aminopyridin-4-yl)methyl)-N2-(1-methyl-1H-imidazol-2-yl)-N1-((R)-1-(2,3-difluoro-4-methylphenyl)propyl)-N2-methyl-4-oxoazetidine-1,2-dicarboxamide]"
